These results are taken from patent US12357680B2, “Inhibition of histone methyl transferases to treat cancer” (Albert-Ludwigs-Universitat Freiburg, priority 2018, dated 2025).

In one data set the target is ASH1L (Homo sapiens (Human), UniProt Q9NR48). As to the kind of experiment: Methyltransferase panel, 10-dose IC50 mode. In kind it is biochemical. The note with it: Substrate: Nucleosomes; 1 μM SAM; read-out: Control IC50*. As to the method: (§1) Compound 72b was further tested against a plurality of methyltransferases as described in the following. […] Reactions were carried out at 1 μM SAM. Curve fits were performed where the enzyme activities at the highest concentration of compounds were less than 65%. […] Compound 72b is referred to as KMI9542321 in the table below.

A further data set deals with NSD3 (Homo sapiens (Human), UniProt Q9BZ95). Nature of the data set: Methyltransferase panel, 10-dose IC50 mode. In kind it is biochemical. The note with it: Substrate: Nucleosomes; 1 μM SAM; read-out: Control IC50*. The protocol: as §1
Sequence of NSD3 (Q9BZ95 whole entry): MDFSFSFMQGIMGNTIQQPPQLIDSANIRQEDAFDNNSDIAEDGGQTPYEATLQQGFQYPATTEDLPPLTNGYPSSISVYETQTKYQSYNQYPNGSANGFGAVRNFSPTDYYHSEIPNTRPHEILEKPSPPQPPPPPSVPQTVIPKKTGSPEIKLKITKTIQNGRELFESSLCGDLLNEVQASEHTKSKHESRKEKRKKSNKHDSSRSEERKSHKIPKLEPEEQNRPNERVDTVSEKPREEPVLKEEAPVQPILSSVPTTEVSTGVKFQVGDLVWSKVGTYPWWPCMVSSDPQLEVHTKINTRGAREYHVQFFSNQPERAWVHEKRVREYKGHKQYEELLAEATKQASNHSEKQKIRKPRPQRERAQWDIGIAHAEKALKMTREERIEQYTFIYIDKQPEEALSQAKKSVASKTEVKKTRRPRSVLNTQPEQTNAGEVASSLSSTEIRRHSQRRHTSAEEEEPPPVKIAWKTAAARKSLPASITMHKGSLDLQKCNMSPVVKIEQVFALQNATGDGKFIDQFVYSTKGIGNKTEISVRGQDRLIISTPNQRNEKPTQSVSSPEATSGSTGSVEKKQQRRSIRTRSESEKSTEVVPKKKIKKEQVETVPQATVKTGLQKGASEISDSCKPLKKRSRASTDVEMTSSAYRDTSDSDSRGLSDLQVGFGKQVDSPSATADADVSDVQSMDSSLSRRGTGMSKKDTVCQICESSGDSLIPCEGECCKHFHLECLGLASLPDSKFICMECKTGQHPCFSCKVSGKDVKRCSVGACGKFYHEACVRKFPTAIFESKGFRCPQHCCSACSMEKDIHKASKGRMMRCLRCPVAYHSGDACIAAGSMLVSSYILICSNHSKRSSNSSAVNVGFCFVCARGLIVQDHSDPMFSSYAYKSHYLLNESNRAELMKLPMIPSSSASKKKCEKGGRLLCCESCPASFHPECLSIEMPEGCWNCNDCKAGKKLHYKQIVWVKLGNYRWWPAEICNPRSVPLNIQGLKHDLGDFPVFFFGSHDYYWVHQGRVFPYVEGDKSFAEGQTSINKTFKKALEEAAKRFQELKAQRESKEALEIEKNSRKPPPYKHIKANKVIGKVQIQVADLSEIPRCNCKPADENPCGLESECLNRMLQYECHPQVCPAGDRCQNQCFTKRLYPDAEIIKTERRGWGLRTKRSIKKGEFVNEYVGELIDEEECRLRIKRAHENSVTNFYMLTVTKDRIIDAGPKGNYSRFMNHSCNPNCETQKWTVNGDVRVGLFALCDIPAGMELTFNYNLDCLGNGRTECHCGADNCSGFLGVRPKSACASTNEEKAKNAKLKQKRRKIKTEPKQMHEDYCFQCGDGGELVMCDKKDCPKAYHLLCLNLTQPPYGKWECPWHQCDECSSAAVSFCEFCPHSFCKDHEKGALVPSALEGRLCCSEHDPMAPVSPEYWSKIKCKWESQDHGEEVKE
Another data set has as its target PRDM9 (Homo sapiens (Human), UniProt Q9NQV7). Nature of the data set: Methyltransferase panel, 10-dose IC50 mode. It counts as biochemical. The note with it: Substrate: Histone H3; 1 μM SAM; read-out: Control IC50*. As to the method: as §1
Data set [1] concerns LNCaP prostate tumour cells. As to the kind of experiment: Cell proliferation, xCelligence RTCA. It counts as cell-based, human. The protocol: (§2) Compound 75b was tested in a proliferation assay in cell culture as described in the following. Thus, compound 75b (alternatively referred to as “KMI95423411”) was added to a final concentration of 30 μM (in the controls, DMSO as added) to cells of the following cell lines: LNCaP, SW-480, A549, MDA-MB-468 and HepG2, and the cells were cultured in the presence of inhibitor or DMSO. At the time points indicated in FIG. 15, the cells were seeded in E-plates and the cell proliferation was determined using the xCelligence RTCA system (Roche) as described below.
(§3) Cell proliferation, migration and invastion were determined using the X-Celligence RTCA system (Roche). pLenti-LacZ, pLenti-KMT9α, pLenti-KMT9α(N122A), pLenti-KMT9α(Y125A) pLenti-ETF1, pLenti-shLaZ, and pLenti-shKMT9α constructs were used to produce recombinant lentiviruses to infect LNCaP and PC-3M cells as described in Metzger et al., 2005. For real-time recording of LNCaP, LNCaP-abl, LNCaP-abl EnzaR, and C4-2B cell proliferation, 20000 cells/well were seeded in 16 well E-plates (Roche). For PC-3M, 2500 cells/well were used. For DuCaP EnzaR, LAPC4 and LAPC4 EnzaR, 40000 cells/well were used. Cells were transfected with the indicated siRNAs in presence of Dharmafect 1 (LNCaP-abl, LAPC4, LAPC4 EnzaR; Dharmacon), Dharmafect 2 (LNCaP, PC-3M), or RNAiMAx (C4-2B, LNCaP-abl EnzaR, DuCaP EnzaR; Caco-2, HT-29, SK-N-SH, SW620, SW480, HT-29, HT-115, HCT116 p53+/+ and HCT p53−/−; Life Technologies) 24 h before seeding in E-plates. Cell indices were automatically recorded every 15 minutes. Relative velocities represent the change of the cell index over time. The sequences of the siRNAs (Stealth RNAi™ siRNAs; Life Technologies) used in the experiments are as following: siCtrl: […]

The test system of data set [2] is SW-480 colorectal cancer cells. Nature of the data set: Cell proliferation, xCelligence RTCA. In kind it is cell-based, human. The note with it: final concentration of 30 μM, vs DMSO. The protocol:
as §2, §3

The test system of a further data set is A549 lung tumour cells. As to the kind of experiment: Cell proliferation, xCelligence RTCA. In kind it is cell-based. The note with it: final concentration of 30 μM, vs DMSO. The protocol: as §2, §3
The test system of another data set is HepG2 cells. Nature of the data set: Cell proliferation, xCelligence RTCA. It counts as cell-based. The note with it: final concentration of 30 μM, vs DMSO; KMT9 non-responsive cells. The protocol:
as §2, §3

Data set [3] deals with MDA-MB-468 breast cancer cells. Nature of the data set: Cell proliferation, xCelligence RTCA. The note with it: final concentration of 30 μM, vs DMSO. It counts as cell-based. The protocol: as §2, §3
Data set [4] concerns the target recombinant KMT9 (C21orf127/TRMT112) (Homo sapiens (Human), UniProt Q9Y5N5). Nature of the data set: Histone H4 methylation assay with SAM[3H], autoradiography. In kind it is biochemical. The note with it: histone H4, SAM[3H]. As to the method: FIG. 1 C21orf127/TRMT112 methylates histone H4 at K12. (A to C) Methylation assays. (A) Histone H4, H3, H2A, H2B, and H1 were incubated with SAM[^3H] in the absence or presence of recombinant C21orf127/TRMT112. (B) Wild-type or mutant histone H4 were incubated with SAM[3H] in the presence of recombinant C21orf127/TRMT112. Proteins were stained by Ponceau red. […] (C) Histone H4 was incubated with C21orf127/TRMT112, SAM[^3H], and the SAM competitive inhibitor sinefungin as indicated. Proteins were stained by Ponceau red.
FIG. 9. […] Histone H4 (2 μg) was incubated with SAM[3H] in the presence of recombinant KMT9 (KMT9α and KMT90) and the three afore-mentioned inhibitors as indicated.
It was tested in this example whether the known DOT1L-inhibitors EPZ5676, SGC0946 and EPZ004777 (which are commercially available) are capable of inhibiting KMT9. To this aim, histone H4 was incubated with SAM[^3H] in the presence of recombinant KMT9 (provided in the form of the heterodimer of KMT9α and KMT90) and the three afore-mentioned inhibitors.
Four to eight μg of purified recombinant His-C21orf127, His-C21orf127/TRMT112, His-C21orf127(D103A)/TRMT112, His-C21orf127(N122A)/TRMT112, His-C21orf127(Y125A)/TRMT112, His-TRMT112, WBSCR22/TRMT112, His-TRMT11, His-TRMT12, His-KIAA1456, His-TRMT5, His-METTL27, His-METTL21A and His-METTL21B were incubated either with 4 μg core histones or 2 μg of histones H4, H3, H2A, H2B, H1 (BPS Bioscience), histone H4K12A, or His-ETF1 as indicated in methylation buffer (10 mM Tris-HCl pH 7.6, 50 mM KCl, 10 mM Mg(OAc)2, 1 mM DTT) supplemented as indicated with 1.5 μM SAM or 1.5 μl of radioactively labelled [^3H]SAM for 60 min (METTL21A: 300 minutes, METTL21B: 18 h) at 30° C. For mass spectrometry analysis, 2 μg of histone H4 were incubated overnight with 2 μg of His-C21orf127/TRMT112 in presence of SAM, heavy SAM, or SAM/heavy SAM mixture. The reaction mixture was analysed by autoradiography, Western blotting, or mass spectrometry.

The target in another data set is SET8 (Homo sapiens (Human), UniProt Q9NQR1). Nature of the data set: Methyltransferase panel, 10-dose IC50 mode. In kind it is biochemical. The note with it: Substrate: Nucleosomes; 1 μM SAM; read-out: Control IC50*. As to the method:
as §1

In the next data set the target is C21orf127 (Homo sapiens (Human), UniProt Q9Y5N5). As to the kind of experiment: Isothermal titration calorimetry (ITC) SAM binding. The note with it: monomeric C21orf127. As to the method: (§4) ITC experiments were performed at 20° C. with a MicroCal VP-ITC microcalorimeter (Malvern). […] ITC data were analysed and fitted with one-site binding model by using Origin 7.0.
Sequence of C21orf127 (Q9Y5N5 whole entry): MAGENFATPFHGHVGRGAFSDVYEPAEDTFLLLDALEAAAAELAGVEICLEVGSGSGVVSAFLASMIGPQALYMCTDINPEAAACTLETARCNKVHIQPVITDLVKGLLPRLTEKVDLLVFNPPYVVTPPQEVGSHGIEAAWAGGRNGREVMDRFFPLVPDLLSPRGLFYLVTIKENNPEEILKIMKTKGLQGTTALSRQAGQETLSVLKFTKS
On the technique in general: In ITC the heat of successive injections is recorded.

The next data set deals with C21orf127(D103)/TRMT112 (Homo sapiens (Human), UniProt Q9Y5N5, D103A). Nature of the data set: Isothermal titration calorimetry (ITC) SAM binding. The note with it: mutant heterodimer. The protocol: as §4
Sequence of C21orf127(D103)/TRMT112 (Q9Y5N5 whole entry D103A): as the sequence (Q9Y5N5 whole entry) above, with D103A counted along it
Sequence of C21orf127(D103)/TRMT112 (Q9UI30 whole entry partner): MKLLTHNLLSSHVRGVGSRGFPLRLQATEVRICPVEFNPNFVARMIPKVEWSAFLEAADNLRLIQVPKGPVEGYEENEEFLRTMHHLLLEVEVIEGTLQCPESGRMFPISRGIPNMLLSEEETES
For the next data set, the target named is C21orf127/TRMT112 (Homo sapiens (Human), UniProt Q9Y5N5). Nature of the data set: Isothermal titration calorimetry (ITC) SAM binding. The note with it: 20° C. The protocol: as §4
Sequence of C21orf127/TRMT112 (Q9Y5N5 whole entry): as the sequence (Q9Y5N5 whole entry) above
Sequence of C21orf127/TRMT112 (Q9UI30 whole entry partner): as the sequence (Q9UI30 whole entry partner) above
Another data set concerns the target TRMT112 (Homo sapiens (Human), UniProt Q9UI30). Nature of the data set: Isothermal titration calorimetry (ITC) SAM binding. The note with it: monomeric TRMT112. As to the method:
as §4

Data set [5] deals with LAPC4 EnzaR xenograft tumours. Nature of the data set: Growth of xenograft tumours in NOD/SCID mice. In kind it is in vivo. The note with it: castrated mice, subcutaneous, vs miCtrl. The text has this:
(§5) It was investigated whether KMT9α loss might affect tumour growth in mice. Therefore, PC-3M and LNCaP cells were infected with lentivirus driving expression of either miRNA control (miRNA Ctrl) or miRNA against KMT9α (miRNA KMT9α) and implanted subcutaneously in the flank of immunocompromised mice. […] To investigate whether knockdown of KMT9α also blocks growth of enzalutamide-resistant tumours, LAPC4 EnzaR miCtrl and miKMT9α cells were implanted subcutaneously in the flank of immunocompromised, castrated mice.
(§6) pLenti6-miRNA Control and pLenti6-miRNA KMT9α constructs were used to produce recombinant lentiviruses to infect LNCaP, PC-3M and LAPC4 EnzaR cells as described^26. Five-week-old male severe combined immunodeficient mice were purchased from Charles River Laboratories. For tumour inoculation 5×10^6 LNCaP, 2×10^6 PC-3M, and 5×10^6 LAPC4 EnzaR cells infected with pLenti6-miRNA Control or pLenti6-miRNA KMT9α constructs were injected in NOD/SCID mice, respectively. Mice were castrated one week before injection of LAPC4 EnzaR. Cells were resuspended in 100 μl RPMI1640 mixed with 100 μl Matrigel (BD Biosciences) on ice and administered subcutaneously in the flank of each animal. The tumour size was determined by calliper measurements two times a week^24. Tumour volumes were calculated using the formula 4/3×π×r3. All experiments were performed according to the German Animal Protection Law with permission from the responsible local authorities.

For another data set, the system named is LNCaP xenograft tumours. Nature of the data set: Growth of xenograft tumours in NOD/SCID mice. The note with it: cells infected with lentivirus, subcutaneous, vs miRNA Ctrl. It counts as in vivo.
Excerpt: as §5, §6

A further data set deals with PC-3M xenograft tumours. Nature of the data set: Growth of xenograft tumours in NOD/SCID mice. In kind it is in vivo. The note with it: cells infected with lentivirus, subcutaneous, vs miRNA Ctrl.
Excerpt: as §5, §6

Sequence of recombinant KMT9 (C21orf127/TRMT112) (Q9Y5N5 whole entry): as the sequence (Q9Y5N5 whole entry) above
Sequence of recombinant KMT9 (C21orf127/TRMT112) (Q9UI30 whole entry partner): as the sequence (Q9UI30 whole entry partner) above
Sequence of TRMT112 (Q9UI30 whole entry): as the sequence (Q9UI30 whole entry partner) above
Sequence of SET8 (Q9NQR1 whole entry): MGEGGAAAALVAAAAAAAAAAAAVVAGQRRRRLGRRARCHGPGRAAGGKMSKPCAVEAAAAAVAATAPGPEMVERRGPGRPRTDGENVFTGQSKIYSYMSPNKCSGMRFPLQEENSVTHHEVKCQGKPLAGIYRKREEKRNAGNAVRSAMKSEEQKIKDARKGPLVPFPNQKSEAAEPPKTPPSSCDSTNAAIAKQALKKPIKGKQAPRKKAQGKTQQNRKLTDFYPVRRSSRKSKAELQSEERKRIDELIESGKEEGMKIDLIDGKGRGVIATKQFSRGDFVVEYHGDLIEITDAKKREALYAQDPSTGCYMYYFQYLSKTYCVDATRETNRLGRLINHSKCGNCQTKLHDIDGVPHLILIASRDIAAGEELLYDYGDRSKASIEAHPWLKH
Sequence of PRDM9 (Q9NQV7 whole entry): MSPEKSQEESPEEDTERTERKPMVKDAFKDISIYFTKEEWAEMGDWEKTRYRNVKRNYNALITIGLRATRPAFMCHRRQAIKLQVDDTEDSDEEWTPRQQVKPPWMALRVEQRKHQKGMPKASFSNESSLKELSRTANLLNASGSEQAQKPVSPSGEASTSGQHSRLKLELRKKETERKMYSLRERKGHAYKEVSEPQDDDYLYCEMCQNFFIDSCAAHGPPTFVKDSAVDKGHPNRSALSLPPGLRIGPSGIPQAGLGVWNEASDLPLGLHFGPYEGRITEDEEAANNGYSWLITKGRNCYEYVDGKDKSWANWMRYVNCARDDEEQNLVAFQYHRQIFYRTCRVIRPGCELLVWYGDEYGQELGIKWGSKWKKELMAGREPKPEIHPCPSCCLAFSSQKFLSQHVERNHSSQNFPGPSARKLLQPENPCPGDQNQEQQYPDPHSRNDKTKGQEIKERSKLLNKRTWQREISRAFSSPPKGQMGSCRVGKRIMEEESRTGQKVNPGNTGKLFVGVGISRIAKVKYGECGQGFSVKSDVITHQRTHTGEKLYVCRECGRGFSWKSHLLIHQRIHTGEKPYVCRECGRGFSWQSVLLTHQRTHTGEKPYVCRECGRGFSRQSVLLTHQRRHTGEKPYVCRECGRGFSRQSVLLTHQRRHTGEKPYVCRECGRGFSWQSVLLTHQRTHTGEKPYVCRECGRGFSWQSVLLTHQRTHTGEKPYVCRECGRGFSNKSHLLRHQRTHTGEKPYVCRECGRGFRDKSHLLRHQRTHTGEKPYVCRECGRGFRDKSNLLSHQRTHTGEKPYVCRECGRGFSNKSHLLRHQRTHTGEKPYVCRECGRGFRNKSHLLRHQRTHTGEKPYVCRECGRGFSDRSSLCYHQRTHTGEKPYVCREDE

For orientation: IC50 means the midpoint of a concentration-inhibition curve. On to `CN1C(=O)[C@@]23C[C@]4([C@]56C[C@@]78SS[C@@](CO)(C(=O)N7[C@H]5Nc5ccccc56)N(C)C8=O)c5ccccc5N[C@@H]4N2C(=O)[C@]1(CO)SS3` [Chaetocin], for which the IC50 at ASH1L turned out to be 27.4 nM; on NSD3 it was 58.8 nM; on PRDM9, 354 nM.
As to `CNc1ncnc2c1ccn2[C@@H]1C[C@H](CN(CCCNCCc2cccc(Oc3ccccc3)c2)CC[C@H](N)C(=O)OC)[C@@H](O)[C@H]1O` [Compound 75b, methyl (S)-2-amino-4-((((1R,2R,3S,4R)-2,3-dihydroxy-4-(4-(methylamino)-7H-pyrrolo[2,3-d]pyrimidin-7-yl)cyclopentyl)methyl)(3-((3-phenoxyphenethyl)amino)propyl)amino)butanoate], the proliferation result in data set [1] (final concentration of 30 μM, vs DMSO) is recorded as “blocks proliferation”; in data set [2] it was “blocks proliferation”; in the data set on A549 lung tumour cells, “blocks proliferation”; in the data set on HepG2 cells, “does not affect proliferation”; in [3] it was “blocks proliferation”.
With `CC(C)N(CCCNC(=O)Nc1ccc(C(C)(C)C)cc1)C[C@H]1O[C@@H](n2ccc3c(N)ncnc32)[C@H](O)[C@@H]1O` [EPZ004777], in data set [4], the “HMT activity of KMT9 (histone H4 methylation)” value (“HMT activity of KMT9” below) is given as “do not inhibit”.
Same read-out and setting: as for `CC(C)N(C[C@H]1O[C@@H](n2cnc3c(N)ncnc32)[C@H](O)[C@@H]1O)[C@H]1C[C@@H](CCc2nc3cc(C(C)(C)C)ccc3[nH]2)C1` [EPZ5676], the entry is “do not inhibit”.
Take `Cc1ccc(NC2=CC(=O)c3sc(C)nc3C2=O)cc1` [Ryuvidine]: the IC50 at SET8 stood at 775 nM.
As usually defined, the Kd is the concentration at which binding is half-saturated. Consider `C[S+](CC[C@H](N)C(=O)[O-])C[C@H]1O[C@@H](n2cnc3c(N)ncnc32)[C@H](O)[C@@H]1O` (stereo partly drawn) [SAM, S-adenosyl-methionine], for which the SAM binding entry on C21orf127, at C21orf127(D103)/TRMT112 and on TRMT112 was “no SAM binding” throughout. For the same molecule, on C21orf127/TRMT112, the Kd came to 2500 nM.
Regarding `CC(C)N(CCCNC(=O)Nc1ccc(C(C)(C)C)cc1)C[C@H]1O[C@@H](n2cc(Br)c3c(N)ncnc32)[C@H](O)[C@@H]1O` [SGC0946], the “HMT activity of KMT9” value in data set [4] is listed as “do not inhibit”.
As to `Nc1ncnc2c1ncn2[C@@H]1O[C@H](C[C@@H](N)CC[C@H](N)C(=O)O)[C@@H](O)[C@H]1O` [sinefungin], the “HMT activity of KMT9” value in [4] is recorded as “blocked”.
Consider “siKMT9α-3′UTR: siRNA that targets the three-prime untranslated region of the endogenously transcribed KMT9α mRNA (SEQ ID NO: 4) (GGAACUACAUUAGACUUAGUGGAAA; listed as RNA, chemistry not given here)”, for which, in data set [1] (LNCaP-LacZ control cells, vs siCtrl), the proliferation result was “strongly impaired”.

B1: miRNA KMT9α: miRNA against KMT9α expressed from lentivirus pLenti6-miRNA KMT9α (SEQ ID NO: 1, 2) (nucleic acid)
chain 1: TGCTGATGTGAACTTTGTTACAGCGTGTTTTGGCCACTGACTGACACGCTGTAAAAGTTCACAT
chain 2: CCTGATGTGAACTTTTACAGCGTGTCAGTCAGTGGCCAAAACACGCTGTAACAAAGTTCACATC
Turning to B1, the “growth and final weight of xenografts” value (in data set [5]; with LNCaP xenograft tumours; in the data set on PC-3M xenograft tumours) was “strongly reduced” throughout.
